This note sets out measurements from article PMC8511016, “Src acts as the target of matrine to inhibit the proliferation of cancer cells by regulating phosphorylation signaling pathways” (Cell Death & Disease, 2021).

For this experiment, the target named is T1, Src (Homo sapiens, UniProt P12931).
T1 construct: recombinant GST-Src (full-length) and GST-Kinase (270–536 aa); endogenous Src in cell lysates
In words: matrine-bead pull-down of recombinant GST-Src/GST-Kinase competed by free matrine; CETSA and DARTS in lysates; IC50 from Src kinase activity kit in SKOV3 cells ([…] ATP). It is filed as binding.

T1 sequence (P12931 2-536): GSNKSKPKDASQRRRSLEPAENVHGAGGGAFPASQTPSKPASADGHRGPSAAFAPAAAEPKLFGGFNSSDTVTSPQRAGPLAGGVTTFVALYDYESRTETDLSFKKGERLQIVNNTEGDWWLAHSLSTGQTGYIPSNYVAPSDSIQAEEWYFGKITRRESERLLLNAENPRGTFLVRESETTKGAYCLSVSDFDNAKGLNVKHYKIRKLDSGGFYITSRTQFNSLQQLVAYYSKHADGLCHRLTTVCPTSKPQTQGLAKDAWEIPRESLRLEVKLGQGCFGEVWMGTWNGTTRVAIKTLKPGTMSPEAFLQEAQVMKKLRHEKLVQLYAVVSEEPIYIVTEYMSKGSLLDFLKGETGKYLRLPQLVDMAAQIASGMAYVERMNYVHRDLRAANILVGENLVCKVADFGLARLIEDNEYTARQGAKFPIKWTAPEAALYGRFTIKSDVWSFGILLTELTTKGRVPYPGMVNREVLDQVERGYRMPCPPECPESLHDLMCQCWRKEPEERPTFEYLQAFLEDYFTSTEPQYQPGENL

By IC50 is commonly meant the concentration that inhibits the measured activity by half. Consider `O=C1CCC[C@@H]2[C@H]3CCCN4CCC[C@@H](CN12)[C@@H]34` [MA, matrine], for which the half-maximal inhibitory concentration (IC50) is 7.37 mM.
